Converted amounts (≈) assume the structure as drawn.
Tested on: Mannheimia haemolytica
Assay: minimum inhibitory concentration (MIC)
Method: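 Broth microdilution MIC (Sensititre BOPO7F bovine plate, CLSI methods) of 19 antimicrobials against field isolates of P. multocida, M. haemolytica, H. somni (deep nasopharyngeal swabs) and E. coli, Enterococcus spp. (rectal swabs) from weaned dairy heifers. Incubation 16-24 h at 35 C. MIC is the lowest concentration preventing visible growth. Values with <= or > lie at the tested range limits. Trimethoprim-sulfamethoxazole is given as the trimethoprim component of a 1:19 mixture.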

NC[C@@H]1O[C@H](O[C@H]2[C@@H](O)[C@H](O[C@@H]3[C@@H](O)[C@H](N)C[C@H](N)[C@H]3O[C@H]3O[C@H](CN)[C@@H](O)[C@H](O)[C@H]3N)O[C@@H]2CO)[C@H](N)[C@@H](O)[C@@H]1O [Neomycin]
Conditions | minimum inhibitory concentration [mg/L]
isolate (source animal id): 8 | > 32
isolate (source animal id): 13 | > 32
isolate (source animal id): 18 | > 32
isolate (source animal id): 21 | > 32
isolate (source animal id): 25 | > 32
isolate (source animal id): 27 | > 32
isolate (source animal id): 28 | 8 (≈ 13 µM)
isolate (source animal id): 30 | > 32
isolate (source animal id): 31 | 16 (≈ 26 µM)
isolate (source animal id): 32 | > 32
isolate (source animal id): 34 | > 32
isolate (source animal id): 36 | > 32
isolate (source animal id): 37 | > 32
isolate (source animal id): 40 | > 32
isolate (source animal id): 41 | > 32
isolate (source animal id): 43 | > 32
isolate (source animal id): 46 | > 32
isolate (source animal id): 49 | > 32
isolate (source animal id): 50 | > 32
isolate (source animal id): 51 | > 32
isolate (source animal id): 52 | > 32
isolate (source animal id): 53 | > 32
isolate (source animal id): 55 | 32 (≈ 52.1 µM)
isolate (source animal id): 56 | > 32
isolate (source animal id): 57 | > 32
isolate (source animal id): 100 | > 32
isolate (source animal id): 103 | > 32
isolate (source animal id): 107 | > 32
isolate (source animal id): 108 | > 32
isolate (source animal id): 112 | > 32
isolate (source animal id): 113 | > 32
isolate (source animal id): 121 | > 32
isolate (source animal id): 122 | > 32
isolate (source animal id): 123 | > 32
isolate (source animal id): 126 | > 32
isolate (source animal id): 133 | > 32
isolate (source animal id): 135 | > 32
isolate (source animal id): 138 | > 32
isolate (source animal id): 141 | > 32
isolate (source animal id): 142 | > 32
isolate (source animal id): 145 | > 32
isolate (source animal id): 149 | ≤ 4
isolate (source animal id): 151 | ≤ 4
isolate (source animal id): 152 | 8 (≈ 13 µM)
isolate (source animal id): 154 | 8 (≈ 13 µM)
isolate (source animal id): 159 | > 32
isolate (source animal id): 162 | > 32
isolate (source animal id): 170 | > 32
isolate (source animal id): 171 | ≤ 4
isolate (source animal id): 172 | > 32
isolate (source animal id): 173 | > 32
isolate (source animal id): 179 | > 32
isolate (source animal id): 180 | > 32
isolate (source animal id): 183 | > 32
isolate (source animal id): 186 | > 32
isolate (source animal id): 187 | > 32
isolate (source animal id): 188 | > 32
isolate (source animal id): 190 | 8 (≈ 13 µM)
isolate (source animal id): 191 | > 32
isolate (source animal id): 192 | ≤ 4
isolate (source animal id): 201 | > 32
isolate (source animal id): 202 | > 32
isolate (source animal id): 209 | > 32
isolate (source animal id): 211 | 8 (≈ 13 µM)
isolate (source animal id): 220 | > 32
isolate (source animal id): 221 | > 32
isolate (source animal id): 223 | > 32
isolate (source animal id): 233 | > 32
isolate (source animal id): 237 | 8 (≈ 13 µM)
isolate (source animal id): 241 | > 32
isolate (source animal id): 252 | > 32
isolate (source animal id): 253 | > 32
isolate (source animal id): 259 | > 32
isolate (source animal id): 260 | > 32
isolate (source animal id): 262 | > 32
isolate (source animal id): 282 | > 32
isolate (source animal id): 287 | > 32

Source: the supplement of paper PMC8612539
